Where two headings read alike, the source gives them in different places. Marks after values point to notes of the source that are not given here. Blank lines part the entries; values can stand above or below the compound they belong to.
Legend:
[1] = clinical; settings: human, in vivo, 200 mg
Source text: A definitive low-level LC/MS/MS analytical method to determine the concentrations of synthetic progesterone in human plasma is described. Instrumentation used in this example includes an Applied Biosystems Q-Trap 4000 system using Analyst® 1.4.2 software, Shimadzu LC-20AD HPLC pumps and a LEAP HTC PAL Autosampler. As understood by a person skilled in the art, various similar or equivalent pieces of instrumentation can be used to perform this method. It is also recognized that improved instrumentation can be introduced utilizing equivalent or similar principles of analysis to perform this method similarly or better by being faster, more sensitive, more accurate or more robust relative to the instrumentation used herein. Analyze the pregnant female plasma isotopic ratio standard seven consecutive times. Analyze the synthetic isotopic ratio standard at least seven consecutive times. Analyze the plate beginning with the first calibration sample. Using the data from the seven injections of pregnant female plasma calculate the average area for the progesterone transition and for the progesterone isotope transition. Calculate the ratio by dividing the average area of the progesterone peak by the average area of the isotope peak. This is the natural progesterone ratio. Using the data from the seven injections of the Synthetic Standard calculate the average area for the progesterone transition and for the progesterone isotope transition. Calculate the ratio by dividing the average area of the progesterone peak by the average area of the isotope peak. This is the synthetic progesterone ratio. […] In addition, data presented herein are for fasted post-menopausal women. Fasting can affect progesterone uptake. In this example, healthy, fasted, post-menopausal women orally ingest 1×200 mg progesterone. Plasma samples are obtained from 2 h pre-dose to 24 h post-dose. […] Cmax is the maximum observed concentration and Tmax the time at which Cmax took place. Clast is the value of the last measurable concentration, and […].

[2] = parameters: AUC / Cmax: unit not given beside the values; settings: from package insert, total progesterone, cited from earlier work
[3] = reported; cited from earlier work

AUClast ([1]; po): 3.84 ng·h/mL
Tmax ([1]; po): 2.33^a h
SMILES: CC(=O)[C@H]1CC[C@H]2[C@@H]3CCC4=CC(=O)CC[C@]4(C)[C@H]3CC[C@]12C [Endogenous Progesterone]

AUC ([1]; female): 1.6 ng·h/mL
Cmax ([1]; female): 3.1 ± 2.3
Cmax ([1]; female, Cmax): 1.05 ng/mL
Tmax ([1]; female, po): 2.63 h
AUC(0-t) ([1]; female, po, AUC0-4 h): 1.01 to 2.37 ng·h/mL
AUC(0-t) ([1]; female, po, AUClast): 2.11 ng·h/mL
Cmax ([1]; female, po, Cmax): 0.62 to 1.6 ng/mL
SMILES: CC(=O)[C@H]1CC[C@H]2[C@@H]3CCC4=CC(=O)CC[C@]4(C)[C@H]3CC[C@]12C [PROMETRIUM, pregn-4-ene-3,20-dione]
AUC ([2]; 100 mg after 5 daily doses): 43.3 + 30.8
Cmax ([2]; 100 mg after 5 daily doses): 17.3 + 21.9
Cmax ([2]; 200 mg after 5 daily doses): 38.1 + 37.8
Tmax ([2]; 200 mg after 5 daily doses): 2.3 + 1.4
AUC ([2]; 300 mg after 5 daily doses): 175.7 + 170.3
Cmax ([2]; 300 mg after 5 daily doses): 60.6 + 72.5
Tmax ([2]; 300 mg after 5 daily doses): 1.7 + 0.6

AUClast ([1]; po): 6.47 ng·h/mL
Tmax ([1]; po): 2.00 h
SMILES: CC(=O)[C@H]1CC[C@H]2[C@@H]3CCC4=CC(=O)CC[C@]4(C)[C@H]3CC[C@]12C [Total Progesterone]

SMILES: CC(=O)[C@H]1CC[C@H]2[C@@H]3CCC4=CC(=O)CC[C@]4(C)[C@H]3CC[C@]12C [progesterone]
half life in the circulation [3]: only a few minutes

— US20100304426A1, “Analytical Methods for Measuring Synthetic Progesterone” (priority 2009, published 2010)
